Test systems include CAKI-1; CCRF-CEM; HCT-116; HCT-15; HT-29; KM-20L2; MOLT-4; NCI-H522; OVCAR-3; OVCAR-5; OVCAR-8; SF-539; SK-MEL-28; SK-OV-3; SNB-19; SNB-75; SR; TK-10; BT-549.
Assay in all cases: DTP human tumour cell line panel, 48 h

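Step 1: Grow cells in 96-well plates. Step 2: Expose to compound for 48 hours at 5 concentrations. Step 3: Interpolate endpoints linearly; if unreached, use highest concentration. Abbreviation: GI50, concentration required for 50% inhibition of growth.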 Calls of active or inactive are those of the source. No stated cut-off is given here; in the data, active = GI50 up to about 1.1 µM and inactive = higher. Some results are limits rather than exact numbers.

The GI50 is the concentration at which growth is held to half of that of the control. Take `CN(CCO)c1nc(N)cc(=O)[nH]1`: the GI50 in the assay on CAKI-1 is > 100 µM (inactive); in the assay on CCRF-CEM, > 100 µM (inactive); in the assay on HCT-116, > 100 µM (inactive); with HCT-15 it was more than 100 µM; with HT-29, > 100 µM (inactive); with KM-20L2, > 100 µM (inactive). The GI50 in the assay on MOLT-4, in the assay on NCI-H522, in the assay on OVCAR-3, in the assay with OVCAR-5, with OVCAR-8 and in the assay with SF-539 was > 100 µM (inactive) in each case. The GI50 was > 100 µM (inactive) in the assay on SK-MEL-28; > 100 µM (inactive) in the assay with SK-OV-3; > 100 µM (inactive) in the assay on SNB-19; 38.7 µM (inactive) with SNB-75; > 100 µM (inactive) with SR; > 100 µM (inactive) in the assay with TK-10.

For `O=C1Cc2ccccc2CCc2ccccc21`, the GI50 is > 100 µM (inactive) in the assay on CAKI-1; > 100 µM (inactive) in the assay on CCRF-CEM; > 100 µM (inactive) in the assay with HCT-116; more than 100 µM in the assay with HCT-15; > 100 µM (inactive) in the assay on HT-29; > 100 µM (inactive) in the assay with KM-20L2. Further, the GI50 in the assay with MOLT-4 was > 100 µM (inactive); with NCI-H522, 68.9 µM (inactive); in the assay with OVCAR-3 it was > 100 µM (inactive); in the assay on OVCAR-5 it was > 100 µM (inactive); with OVCAR-8, > 100 µM (inactive); with SF-539, > 100 µM (inactive). Moreover, the GI50 in the assay with SK-MEL-28 was > 100 µM (inactive); in the assay on SK-OV-3, > 100 µM (inactive); in the assay on SNB-19, > 100 µM (inactive); with SNB-75, 81.8 µM (inactive); with SR it was > 100 µM (inactive); with TK-10, > 100 µM (inactive).

Take `CCOC(=O)C1=C(O)C(=O)c2c(OC)ccc(OC)c2C1=O`: the GI50 in the assay with CAKI-1 was > 100 µM (inactive); in the assay on CCRF-CEM it was > 100 µM (inactive); in the assay with HCT-116 it was > 100 µM (inactive); with HCT-15, more than 100 µM; in the assay on HT-29, > 100 µM (inactive); in the assay on KM-20L2 it was > 100 µM (inactive). The GI50 in the assay with MOLT-4, in the assay on NCI-H522, in the assay with OVCAR-3, in the assay with OVCAR-5, with OVCAR-8 and in the assay on SF-539 was > 100 µM (inactive) each time. Further, the GI50 in the assay on SK-MEL-28 is > 100 µM (inactive); with SK-OV-3, > 100 µM (inactive); in the assay with SNB-19, > 100 µM (inactive); in the assay with SNB-75, 82.6 µM (inactive); in the assay with SR, > 100 µM (inactive); with TK-10, > 100 µM (inactive).

In the case of `NNC(=O)CCC(=O)Nc1cc(Cl)c(Cl)cc1Cl`, the GI50 with CAKI-1 was > 100 µM (inactive); in the assay on CCRF-CEM, > 100 µM (inactive); with HCT-116 it was > 100 µM (inactive); in the assay on HCT-15, more than 100 µM; with HT-29, > 100 µM (inactive); with KM-20L2, > 100 µM (inactive). The GI50 with MOLT-4 is 90.6 µM (inactive); in the assay with NCI-H522, > 100 µM (inactive); in the assay on OVCAR-3, 75.2 µM (inactive); with OVCAR-5, > 100 µM (inactive); in the assay on OVCAR-8, > 100 µM (inactive); in the assay with SF-539 it was > 100 µM (inactive). In addition, the GI50 was > 100 µM (inactive) with SK-MEL-28; > 100 µM (inactive) in the assay on SK-OV-3; > 100 µM (inactive) in the assay with SNB-19; 95.1 µM (inactive) in the assay on SNB-75; 0.607 µM (active) in the assay on SR; > 100 µM (inactive) in the assay on TK-10.

Consider `Oc1ccc(-c2c3ccccc3c(-c3ccc(O)cc3)c3ccccc23)cc1`, for which the GI50 in the assay on CAKI-1 is > 100 µM (inactive); with CCRF-CEM it was > 100 µM (inactive); in the assay with HCT-116, 87.5 µM (inactive); in the assay with HCT-15 it was more than 100 µM; in the assay with HT-29, > 100 µM (inactive); in the assay with KM-20L2, > 100 µM (inactive). Besides, the GI50 in the assay on MOLT-4, with NCI-H522, with OVCAR-3, in the assay with OVCAR-5, in the assay with OVCAR-8 and in the assay on SF-539 was > 100 µM (inactive) in each case. The GI50 with SK-MEL-28 was > 100 µM (inactive); with SK-OV-3, > 100 µM (inactive); with SNB-19 it was > 100 µM (inactive); with SNB-75, 39.8 µM (inactive); in the assay on SR, 64.3 µM (inactive); in the assay on TK-10 it was > 100 µM (inactive).

As for `CC1=C(NC(=O)/C(=N/NC(=S)NN)C2C(=O)CC(C)(C)CC2=O)C(=O)c2ccccc2C1=O`, the GI50 with CAKI-1 is 20.7 µM (inactive); in the assay with CCRF-CEM it was 3.56 µM (inactive); with HCT-116 it was 3.97 µM (inactive); in the assay on HCT-15, 6 µM; in the assay on HT-29, 11.1 µM (inactive); in the assay with KM-20L2, 11.4 µM (inactive). The GI50 with MOLT-4 was 4.07 µM (inactive); in the assay on NCI-H522, 2.85 µM (inactive); in the assay with OVCAR-3 it was 2.3 µM (inactive); with OVCAR-5 it was 22.4 µM (inactive); in the assay with OVCAR-8, 4.55 µM (inactive); in the assay on SF-539, 3.6 µM (inactive). For the same molecule, the GI50 with SK-MEL-28 is 12.9 µM (inactive); in the assay on SK-OV-3 it was 19.8 µM (inactive); with SNB-19, 13 µM (inactive); in the assay on SNB-75, 21.6 µM (inactive); in the assay on SR, 3.61 µM (inactive); with TK-10, 16.1 µM (inactive).

Regarding `CCOC(=O)CSc1nnc(C(Sc2nc(-c3ccccc3)c(-c3ccccc3)[nH]2)C(C)C)n1-c1ccccc1` (centres undefined), the GI50 is 24.5 µM (inactive) with BT-549; 14.3 µM (inactive) in the assay with CCRF-CEM; 14.5 µM (inactive) with HCT-116; 18.1 µM in the assay on HCT-15; 14 µM (inactive) with HT-29; > 10 µM (inactive) in the assay with KM-20L2. Also, the GI50 was 17.1 µM (inactive) with MOLT-4; 15.2 µM (inactive) with NCI-H522; > 10 µM (inactive) in the assay on OVCAR-3; 18.9 µM (inactive) with OVCAR-5; 19.1 µM (inactive) with OVCAR-8; 13 µM (inactive) in the assay with SF-539. The GI50 in the assay on SK-MEL-28 is 18.2 µM (inactive); with SK-OV-3, > 10 µM (inactive); in the assay with SNB-19, 21.9 µM (inactive); in the assay with SNB-75 it was > 10 µM (inactive); in the assay on SR, 31.2 µM (inactive); in the assay with TK-10 it was 21.5 µM (inactive).

Regarding `NC(=O)CCC(NC(=O)Cc1ccccc1)C(=O)O` (centres undefined), the GI50 with CAKI-1 was 1280 µM (inactive); in the assay with CCRF-CEM, 2320 µM (inactive); in the assay on HCT-116, 1090 µM (inactive); with HCT-15, more than 2470 µM; with HT-29 it was > 2470 µM (inactive); in the assay with KM-20L2, > 2470 µM (inactive). The GI50 in the assay with MOLT-4 was > 2470 µM (inactive); in the assay with NCI-H522, 841 µM (inactive); in the assay on OVCAR-3, > 2470 µM (inactive); in the assay on OVCAR-5 it was > 2470 µM (inactive); with OVCAR-8, > 2470 µM (inactive); in the assay with SF-539, 1420 µM (inactive). Moreover, the GI50 is 1160 µM (inactive) in the assay on SK-MEL-28; > 2470 µM (inactive) in the assay on SK-OV-3; > 2470 µM (inactive) in the assay with SNB-19; 724 µM (inactive) with SNB-75; > 2470 µM (inactive) with SR; 2120 µM (inactive) in the assay on TK-10.

(Values after ChEMBL document CHEMBL1201862, “PubChem BioAssay data set” (2004).)
